From patent US20220227745A1, “Compounds For Modulating FXR” (NANJING RUIJIE PHARMA TECH CO., LTD., priority 2019, published 2022)

Assays:
FXR LBD, GST = biological target: T1, FXR LBD, GST (Homo sapiens, UniProt Q96RI1); experiment: FXR Binding Assay (TR-FRET, Fluorescein-SRC2-2 coactivator peptide); settings: for Emax: % Activity relative to positive control, read-out: Pct Effect (Emax %); for EC50: TR-FRET FXR LBD coactivator recruitment
T1 construct: FXR LBD, GST; purchased Invitrogen PV4834
T1 sequence (Q96RI1 262-486 limits assumed): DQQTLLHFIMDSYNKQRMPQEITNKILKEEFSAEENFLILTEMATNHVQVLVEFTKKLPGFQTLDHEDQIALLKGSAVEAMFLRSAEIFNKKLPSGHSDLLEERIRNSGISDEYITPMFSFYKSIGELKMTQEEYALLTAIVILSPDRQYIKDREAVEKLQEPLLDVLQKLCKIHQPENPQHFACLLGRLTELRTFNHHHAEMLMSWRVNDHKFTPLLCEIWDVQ
Experimental: The interaction between the present compounds and FXR are evaluated by Time-Resolved Fluorescence Resonance Energy Transfer (TR-FRET) competition assay. FRET describes a radiation-free energy transfer between two chromophores: a donor fluorophore in its excited state can transfer energy to an acceptor fluorophore in close proximity (typically <10 nm). In contrast to standard FRET, TR-FRET unites time-resolved fluorescence (TRF) and the FRET principle, TRF use a long-lifetime lanthanide chelate as the donor species, while lanthanide chelates are unique in that their excited-state lifetime can be on the order of a millisecond or longer. Suitable neighbors for FRET are known in the art and can be obtained.
The assay was performed in following steps: first, prepared a) 1 mM compounds (100×) in DMSO; b) reaction buffer containing 1× buffer G with 10 mM DTT; c) 4×FXR LBD (20 nM) in 1× chilled buffer G. Second, performed 3-fold serial dilution of 1 mM test compounds using DMSO from 1 mM, 10 doses in a 96-well plate (249944, Nunc). Then, used complete buffer G to dilute each 100× compounds serial dilution to 2×. Third, added 10 μl 2× compound serial dilution into 384-well plate (3677, Corning). Then, added 5 μl FXR LBD into the assay plate. Prepared a solution containing 2 μM fluorescein-SRC2-2 (4×) and 20 nM Tb anti-GST antibody (4×) in buffer G at room temperature and started the reaction by adding 5 μl the above solution into each well of the assay plate. Centrifuged the assay plates at 1000 g for 1 min and then incubated at room temperature for lhr protected from light. Finally, the plate was read at wavelengths of 520 nm and 495 nm on Envision 2104 plate reader (PerkinElmer).
A ratio (Ratio520 nm/495 nm−Ratiobackground) was calculated for each well. The activity ratio was calculated as follow: […]
Ratiopositive: The average ratio for the positive control across the plate.
Ratiovehicle: The average ratio for negative controls across the plate.
(§1) EC50 was calculated by fitting % Activity values and log of compound concentrations to nonlinear regression (dose response-variable slope) with GraphPad 5.0.
(§2) X: log of compound concentration.

[1] = biological target: T2, hFXR-LBD (FXR-GAL4 chimeric receptor) (Homo sapiens, UniProt Q96RI1); experiment: FXR Transactivation Assay (GAL4 luciferase reporter in HEK293T cells); format: cell-based
T2 construct: host or cells: HEK293T
T2 sequence (Q96RI1 262-486 limits assumed): T1 sequence (Q96RI1 262-486 limits assumed)
Experimental: FXR Transactivation Assay
The present compounds were tested to assess their ability to stimulate FXR transactivation activity. The hFXR-LBD, coding sequence was inserted into the pBIND expression vector (Promega, E1581) to express FXR-GAL4 binding domain chimeric receptors. This expression vector and reporter vector (pGL4.35 which carry a stably integrated GAL4 promoter driven luciferase reporter gene) were co-transfected into HEK293T host cells. Upon agonist binding to the corresponding FXR-GAL4 chimeric receptor, the chimeric receptor binds to the GAL4 binding sites and stimulates the reporter gene.
All the working stock were shake for 5 min on plate shaker (QILINBEIER). Second, all cells were cultured as ATCC recommended. HEK293T cells were assayed in exponential growth phase. Removed culture medium from the flask and rinsed cells with PBS. Added TrypLE solution to the flask and make cells detach. Next, cells were washed once with complete growth medium. Then, cells were pelleted and washed twice with PBS to remove phenol red and resuspend them in medium to a proper concentration. Only cells with viability greater than 90% were used for assays. Seeded 6×10^6 HEK293T cells into a 100 mm dish and incubated at 37° C. under 5% CO2 atmosphere for 16 h. Third, Trans-IT reagent and Opti-MEM mix by inversion and incubate 5 min at room temperature. The cell transfection was performed by mixing DNA and the reagent mixture, as well as 6 μg GAL4-FXR plasmid or 2 μg pGL4.35 luciferase plasmid, respectively. The reagent mixture was added to a 100 mm dish and incubated for 4-7 hrs at 37° C. under 5% CO2 atmosphere. Fourth, transferred 75 nl compound dilutions into 384-well assay plates (PerkinElmer) and seeded HEK293T cells at 17,000 cells/well using phenol red-free DMEM containing 5% charcoal/dextran-treated FBS. Then, cells were incubated for 16-20 h at 37° C. under 5% CO2 atmosphere. Finally, added 25 μl Steady-Glo™ Luciferase Assay Reagent into each well of 384-well assay plate, and then shake plate for 5 min protected from light on a plate shaker. Then, the luminescence value was read on Evision 2104 plate reader (PerkinElmer).
The activity ratio was calculated as follow: […]
RLU: Resulting Luminescence
RLUpositive: The average RLU for the positive controls across the plate.
RLUvehicle: The average RLU for negative controls across the plate.
as §1, §2

SMILES	Emax (FXR LBD, GST) [%]	EC50 (FXR LBD, GST) [nM]	EC50 [1] [nM]
CC(C)c1onc(-c2c(Cl)cccc2Cl)c1CCN1CCN(c2ccc3c(C(=O)O)cn(C)c3c2)CC1 [Example I3, 6-(4-(2-(3-(2,6-dichlorophenyl)-5-isopropylisoxazol-4-yl)ethyl)piperazin-1-yl)-1-methyl-1H-indole-3-carboxylic Acid]	192	91	239
Cn1cc(C(=O)O)c2ccc(N3CCN(CCc4c(-c5c(F)cccc5Cl)noc4C4CC4)CC3)cc21 [Example I10, 6-(4-(2-(3-(2-chloro-6-fluorophenyl)-5-cyclopropylisoxazol-4-yl)ethyl)piperazin-1-yl)-1-methyl-1H-indole-3-carboxylic Acid]	173	728	524
C[C@H]1CN(c2ccc3c(C(=O)O)cn(C)c3c2)CCN1CCc1c(-c2c(Cl)cccc2Cl)noc1C1CC1 [Example I37, (S)-6-(4-(2-(5-cyclopropyl-3-(2,6-dichlorophenyl)isoxazol-4-yl)ethyl)-3-methylpiperazin-1-yl)-1-methyl-1H-indole-3-carboxylic Acid]	232	101	574
O=C(O)c1cc(F)c2nc(N3CCN(CCc4c(-c5ccccc5OC(F)(F)F)noc4C4CC4)CC3)sc2c1 [Example I5, 2-(4-(2-(5-cyclopropyl-3-(2-(trifluoromethoxy)phenyl)isoxazol-4-yl)ethyl)piperazin-1-yl)-4-fluorobenzo[d]thiazole-6-carboxylic Acid]	116	297	2380
O=C(O)c1ccc(N2CCN(CCc3c(-c4c(Cl)cccc4Cl)noc3C3CC3)CC2)cc1 [Example I14, 4-(4-(2-(5-cyclopropyl-3-(2,6-dichlorophenyl)isoxazol-4-yl)ethyl)piperazin-1-yl)benzoic Acid]	142	655	912
CC1CN(CCc2c(-c3c(Cl)cccc3Cl)noc2C2CC2)CCN1c1ccc2c(C(=O)O)cn(C)c2c1 (stereo not drawn) [Example I12, 6-(4-(2-(5-cyclopropyl-3-(2,6-dichlorophenyl)isoxazol-4-yl)ethyl)-2-methylpiperazin-1-yl)-1-methyl-1H-indole-3-carboxylic Acid]	147	133	129
CN(Cc1c(-c2c(Cl)cccc2Cl)noc1C1CC1)C1CCN(c2ccc3c(C(=O)O)cn(C)c3c2)CC1 [Example I58, 6-(4-(((5-cyclopropyl-3-(2,6-dichlorophenyl)isoxazol-4-yl)methyl)(methyl)amino)piperidin-1-yl)-1-methyl-1H-indole-3-carboxylic Acid]	83.4	497	2270
Cn1nc2cc(N3CCN(CCc4c(-c5c(Cl)cccc5Cl)noc4C4CC4)CC3)ccc2c1C(=O)O [Example I18, 6-(4-(2-(5-cyclopropyl-3-(2,6-dichlorophenyl)isoxazol-4-yl)ethyl)piperazin-1-yl)-2-methyl-2H-indazole-3-carboxylic Acid]	142	46	436
CC(CN1CCN(c2ccc3c(C(=O)O)cn(C)c3c2)CC1)c1c(-c2c(Cl)cccc2Cl)noc1C1CC1 (stereo not drawn) [Example I24, 6-(4-(2-(5-cyclopropyl-3-(2,6-dichlorophenyl)isoxazol-4-yl)propyl)piperazin-1-yl)-1-methyl-1H-indole-3-carboxylic Acid]	89.8	422	1860
C[C@@H]1CN(CCc2c(-c3c(Cl)cccc3Cl)noc2C2CC2)CCN1c1ccc2c(C(=O)O)cn(C)c2c1 [Example I40, (R)-6-(4-(2-(5-cyclopropyl-3-(2,6-dichlorophenyl)isoxazol-4-yl)ethyl)-2-methylpiperazin-1-yl)-1-methyl-1H-indole-3-carboxylic Acid]	131	77	343
C[C@@H]1CN(c2ccc3c(C(=O)O)cn(C)c3c2)CCN1CCc1c(-c2c(Cl)cccc2Cl)noc1C1CC1 [Example I35, (R)-6-(4-(2-(5-cyclopropyl-3-(2,6-dichlorophenyl)isoxazol-4-yl)ethyl)-3-methylpiperazin-1-yl)-1-methyl-1H-indole-3-carboxylic Acid]	156	97	494
Cc1cccc(Cl)c1-c1noc(C2CC2)c1CCN1CCN(c2ccc3c(C(=O)O)cn(C)c3c2)CC1 [Example I22, 6-(4-(2-(3-(2-chloro-6-methylphenyl)-5-cyclopropylisoxazol-4-yl)ethyl)piperazin-1-yl)-1-methyl-1H-indole-3-carboxylic Acid]	163	162	634
Cc1onc(-c2c(Cl)cccc2Cl)c1CCN1CCN(c2ccc3c(C(=O)O)cn(C)c3c2)CC1 [Example I27, 6-(4-(2-(3-(2,6-dichlorophenyl)-5-methylisoxazol-4-yl)ethyl)piperazin-1-yl)-1-methyl-1H-indole-3-carboxylic Acid]	91.1	454	1800
Cn1cc(C(=O)O)c2ccc(N3C4CCC3CN(CCc3c(-c5c(Cl)cccc5Cl)noc3C3CC3)C4)cc21 [Example I30, 6-(3-(2-(5-cyclopropyl-3-(2,6-dichlorophenyl)isoxazol-4-yl)ethyl)-3,8-diazabicyclo[3.2.1]octan-8-yl)-1-methyl-1H-indole-3-carboxylic Acid]	111	60	1200
CC1CN(c2ccc3c(C(=O)O)cn(C)c3c2)CCN1CCc1c(-c2c(Cl)cccc2Cl)noc1C1CC1 (stereo not drawn) [Example I8, 6-(4-(2-(5-cyclopropyl-3-(2,6-dichlorophenyl)isoxazol-4-yl)ethyl)-3-methylpiperazin-1-yl)-1-methyl-1H-indole-3-carboxylic Acid]	202	94	138
Cn1cc(C(=O)O)c2ccc(N3CCN(C(=O)Cc4c(-c5c(Cl)cccc5Cl)noc4C4CC4)CC3)cc21 [Example I2, 6-(4-(2-(5-cyclopropyl-3-(2,6-dichlorophenyl)isoxazol-4-yl)acetyl)piperazin-1-yl)-1-methyl-1H-indole-3-carboxylic Acid]	75.1	5110	11100
O=C(O)c1ccc2cc(N3CCN(CCc4c(-c5c(Cl)cccc5Cl)noc4C4CC4)CC3)ccc2n1 [Example I6, 6-(4-(2-(5-cyclopropyl-3-(2,6-dichlorophenyl)isoxazol-4-yl)ethyl)piperazin-1-yl)quinoline-2-carboxylic Acid]	142	118	459
